Assay results: patent publication US20080261994A1, “CYCLOPROPANE COMPOUNDS AND PHARMACEUTICAL USE THEREOF” (Japan Tobacco Inc., priority 2003, published 2008)

Legend:
Format in all cases: biochemical
Recombinant Human MMP-13 = target: T1, Recombinant Human MMP-13 (Homo sapiens, UniProt P45452); experiment: MMP-13 inhibitory activity (MMP-13 specific fluorescent substrate with quencher); conditions: Experimental Example 3; read-out: IC50 MMP13
T1 construct: purchased R&D systems 511-MM
Procedure, shortened: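 IC50 (μM) derived from % inhibition, normalised to wells without enzyme and without inhibitor, fluorescence read at 325/405 nm. Enzyme and compound preceded addition of the quenched 7-MCA…DPA substrate; Tris-HCl buffer, 25 °C for 1 h, acetic-acid stop.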

aggrecanase-1 = target: T2, aggrecanase-1 (Homo sapiens, UniProt O75173); experiment: Aggrecanase-1 inhibitory action (Particle Assay, GAG release from aggrecan-containing polyacrylamide particles); conditions: Experimental Example 1; read-out: IC50 AG1
T2 sequence (O75173 213-837): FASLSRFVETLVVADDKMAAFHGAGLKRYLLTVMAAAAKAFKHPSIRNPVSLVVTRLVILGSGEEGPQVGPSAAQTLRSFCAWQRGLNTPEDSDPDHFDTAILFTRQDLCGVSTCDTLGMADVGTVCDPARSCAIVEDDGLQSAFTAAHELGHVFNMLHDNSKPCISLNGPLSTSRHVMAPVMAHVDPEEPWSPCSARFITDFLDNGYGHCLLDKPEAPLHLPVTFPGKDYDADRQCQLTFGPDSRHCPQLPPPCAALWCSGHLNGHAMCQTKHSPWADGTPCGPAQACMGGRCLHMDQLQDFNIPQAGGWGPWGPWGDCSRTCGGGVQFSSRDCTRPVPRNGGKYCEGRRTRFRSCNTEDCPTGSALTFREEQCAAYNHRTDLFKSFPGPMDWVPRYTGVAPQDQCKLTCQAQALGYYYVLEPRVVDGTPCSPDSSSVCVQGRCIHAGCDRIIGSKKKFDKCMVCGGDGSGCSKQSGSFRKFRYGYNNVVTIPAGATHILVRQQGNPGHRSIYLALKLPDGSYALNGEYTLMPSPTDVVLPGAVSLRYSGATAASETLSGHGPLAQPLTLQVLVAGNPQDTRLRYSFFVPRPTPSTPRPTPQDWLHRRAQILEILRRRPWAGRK
Procedure, shortened: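 Readout was dimethylmethylene blue absorbance (595 nm) of glycosaminoglycan liberated into supernatant, calibrated with whale chondroitin sulfate. Substrate was aggrecan in polyacrylamide particles, digested 15 h at 37° C in Tris-HCl; TC50 (μM) derived from inhibition relative to no-enzyme and no-inhibitor controls.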

MMP-1 = target: T3, MMP-1 (Homo sapiens, UniProt P03956); experiment: MMP-1 inhibitory action (Type I collagen Activity Measurement kit, FITC-labeled collagen type I); conditions: Experimental Example 2; read-out: IC50 MMP1
T3 sequence (P03956 100-469): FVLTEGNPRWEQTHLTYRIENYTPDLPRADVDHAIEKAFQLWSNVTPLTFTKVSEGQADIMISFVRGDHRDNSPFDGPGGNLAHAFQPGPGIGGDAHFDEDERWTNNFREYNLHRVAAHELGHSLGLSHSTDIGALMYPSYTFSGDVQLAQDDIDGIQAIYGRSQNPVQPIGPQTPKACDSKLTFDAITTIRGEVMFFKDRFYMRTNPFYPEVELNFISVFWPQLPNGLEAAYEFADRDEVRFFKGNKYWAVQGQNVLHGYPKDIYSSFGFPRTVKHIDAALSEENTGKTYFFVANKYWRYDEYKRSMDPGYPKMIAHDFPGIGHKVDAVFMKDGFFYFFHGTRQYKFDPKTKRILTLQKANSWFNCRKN

IC50 (Recombinant Human MMP-13) [nM]	IC50 (aggrecanase-1) [nM]	IC50 (MMP-1) [nM]	SMILES
≥ 1000	< 1000	≥ 1000	CC1[C@H](c2ccccc2)[C@]1(NS(=O)(=O)N1CCCN(c2ccc(F)cn2)CC1)C(=O)O (stereo partly drawn) [Example 2-462]
≥ 1000	≥ 1000	≥ 10000	CC1[C@H](c2ccccc2)[C@]1(NS(=O)(=O)N1CCN(c2nc3ccccc3s2)CC1)C(=O)O (stereo partly drawn) [Example 2-463]
≥ 1000	≥ 1000	≥ 10000	CC1[C@H](c2ccccc2)[C@]1(NS(=O)(=O)N1CCN(c2nc3ccccc3o2)CC1)C(=O)O (stereo partly drawn) [Example 2-464]
≥ 10000	≥ 1000	≥ 10000	Cc1nnc(N2CCN(S(=O)(=O)N[C@@]3(C(=O)O)C(C)[C@@H]3c3ccccc3)CC2)s1 (stereo partly drawn) [Example 2-465]
≥ 1000	< 1000	≥ 1000	C[C@]1(c2ccccc2)C[C@@]1(NS(=O)(=O)c1ccc(-c2ncc(F)cc2F)s1)C(=O)O [Example 2-466]
≥ 10000	≥ 1000	≥ 10000	C[C@]1(c2ccccc2)C[C@@]1(NS(=O)(=O)c1ccc(N2CCC(F)(F)C2)s1)C(=O)O [Example 2-467]
< 100	< 100	< 1000	CC1[C@H](c2ccccc2)[C@]1(NS(=O)(=O)c1ccc(-c2ccc3c(c2)OCO3)s1)C(=O)O (stereo partly drawn) [Example 2-470]
≥ 1000	≥ 1000	≥ 10000	CC1[C@H](c2ccccc2)[C@]1(NS(=O)(=O)N1CCCN(c2cccc(Cl)c2)CC1)C(=O)O (stereo partly drawn) [Example 2-471]
≥ 10000	< 1000	≥ 1000	CC1[C@H](c2ccccc2)[C@]1(NS(=O)(=O)N1CCCN(c2ccc(F)cc2)CC1)C(=O)O (stereo partly drawn) [Example 2-472]
≥ 1000	≥ 1000	≥ 10000	O=C(Nc1ccc(S(=O)(=O)N[C@@]2(C(=O)O)C[C@@H]2c2ccccc2)cc1)c1ccccc1 [Example 2-473]
≥ 1000	≥ 1000	≥ 10000	O=C(Nc1ccccc1)c1ccc(S(=O)(=O)N[C@@]2(C(=O)O)C[C@@H]2c2ccccc2)cc1 [Example 2-474]
≥ 1000	≥ 1000	≥ 10000	Cc1cc(N2CCN(S(=O)(=O)N[C@@]3(C(=O)O)C(C)[C@@H]3c3ccccc3)CC2)no1 (stereo partly drawn) [Example 2-475]
≥ 10000	≥ 1000	≥ 10000	Cc1cc(N2CCN(S(=O)(=O)N[C@@]3(C(=O)O)C(C)[C@@H]3c3ccccc3)CC2=O)no1 (stereo partly drawn) [Example 2-476]
≥ 1000	≥ 1000	≥ 10000	C[C@]1(c2ccccc2)C[C@@]1(NS(=O)(=O)c1ccc(-c2ccc(Cl)c([N+](=O)[O-])c2)s1)C(=O)O [Example 2-477]
≥ 10000	≥ 1000	≥ 10000	CCOC(=O)c1cccc(-c2ccc(S(=O)(=O)N[C@@]3(C(=O)O)C[C@]3(C)c3ccccc3)s2)c1 [Example 2-478]
≥ 10000	≥ 1000	≥ 10000	C[C@]1(c2ccccc2)C[C@@]1(NS(=O)(=O)c1ccc(-c2cccc(C(=O)O)c2)s1)C(=O)O [Example 2-479]
< 100	< 1000	< 1000	CC(=O)Nc1cccc(-c2ccc(S(=O)(=O)N[C@@]3(C(=O)O)C[C@]3(C)c3ccccc3)s2)c1 [Example 2-480]
< 100	≥ 1000	≥ 10000	Cc1cnn(-c2ccc(S(=O)(=O)N[C@@]3(C(=O)O)C[C@@H]3c3ccccc3)cn2)c1 [Example 2-481]
< 100	≥ 1000	≥ 10000	COc1cnn(-c2ccc(S(=O)(=O)N[C@@]3(C(=O)O)C[C@@H]3c3ccccc3)cn2)c1 [Example 2-482]

The remaining lines, values behind:

SMILES	IC50 (Recombinant Human MMP-13) [nM]	IC50 (aggrecanase-1) [nM]	IC50 (MMP-1) [nM]
O=C(O)C1(NS(=O)(=O)c2ccc(-c3cc(C(F)(F)F)on3)s2)C2CCC(O)c3ccccc3C21 (stereo not drawn) [Example 2-438]	< 100	< 100	< 1000
CC(=O)N1CCC2C(c3ccccc31)C2(NS(=O)(=O)c1ccc(-c2ccc(Cl)cc2)s1)C(=O)O (stereo not drawn) [Example 2-439]	< 100	< 100	≥ 1000
CS(=O)(=O)CC1(c2ccccc2)CC1(NS(=O)(=O)c1ccc(-c2ccc(Cl)cc2)s1)C(=O)O (stereo not drawn) [Example 2-440]	< 1000	< 1000	≥ 10000
CC1[C@H](c2ccccc2)[C@]1(NS(=O)(=O)N1CC=C(c2ccc(Cl)cc2)CC1)C(=O)O (stereo partly drawn) [Example 2-441]	< 100	< 100	≥ 1000
CC1CCC(N2CCN(S(=O)(=O)N[C@@]3(C(=O)O)C(C)[C@@H]3c3ccccc3)CC2)CC1 (stereo partly drawn) [Example 2-442]	≥ 1000	≥ 1000	≥ 10000
CC(C)N1CCN(c2ccc(S(=O)(=O)N[C@@]3(C(=O)O)C[C@]3(C)c3ccccc3)s2)CC1 [Example 2-443]	≥ 1000	≥ 1000	≥ 10000
CC1[C@H](c2ccccc2)[C@]1(NS(=O)(=O)c1ccc(-n2cc(Cl)cn2)s1)C(=O)O (stereo partly drawn) [Example 2-444]	< 100	< 100	< 1000
CC1[C@H](c2ccccc2)[C@]1(NS(=O)(=O)N1CCn2c(nc3cc(Cl)ccc32)C1)C(=O)O (stereo partly drawn) [Example 2-445]	< 1000	< 1000	≥ 10000
O=C(O)C1(NS(=O)(=O)c2ccc(OCc3ccc(Cl)cc3Cl)cc2)C2Cc3ccccc3C21 (stereo not drawn) [Example 2-446]	≥ 1000	≥ 1000	≥ 10000
O=C(NO)C1(NS(=O)(=O)c2ccc(-c3ccc(Cl)cc3)s2)C2Cc3ccccc3C21 (stereo not drawn) [Example 2-447]	< 100	< 1000	< 1000
C[C@]1(c2ccccc2)C[C@@]1(NS(=O)(=O)c1ccc(-c2cc(Cl)cc(Cl)c2)s1)C(=O)O [Example 2-448]	≥ 1000	≥ 1000	≥ 10000
C[C@]1(c2ccccc2)C[C@@]1(NS(=O)(=O)c1ccc(-c2ccc3c(c2)OCO3)s1)C(=O)O [Example 2-449]	< 100	< 100	≥ 1000
CC1[C@H](c2ccccc2)[C@]1(NS(=O)(=O)c1ccc(-c2cn(C)cn2)s1)C(=O)O (stereo partly drawn) [Example 2-450]	< 1000	< 1000	≥ 10000
Cc1nc(-c2ccc(S(=O)(=O)N[C@@]3(C(=O)O)C(C)[C@@H]3c3ccccc3)s2)no1 (stereo partly drawn) [Example 2-451]	≥ 1000	≥ 1000	≥ 10000
C[C@]1(c2ccccc2)C[C@@]1(NS(=O)(=O)c1ccc(-c2cccc(N)c2)s1)C(=O)O [Example 2-452]	< 100	< 1000	< 1000
C[C@]1(c2ccccc2)C[C@@]1(NS(=O)(=O)c1ccc(-c2cccc(NS(C)(=O)=O)c2)s1)C(=O)O [Example 2-453]	< 1000	≥ 1000	≥ 10000
CC1[C@H](c2ccccc2)[C@]1(NS(=O)(=O)N1CCCN(c2ccc(Cl)cc2)CC1)C(=O)O (stereo partly drawn) [Example 2-454]	≥ 1000	< 1000	≥ 10000
CC1[C@H](c2ccccc2)[C@]1(NS(=O)(=O)N1CCN(c2ccc(Cl)cn2)CC1)C(=O)O (stereo partly drawn) [Example 2-457]	< 100	< 100	≥ 1000
CC1[C@H](c2ccccc2)[C@]1(NS(=O)(=O)N1CCN(c2ccc(Br)cc2)CC1)C(=O)O (stereo partly drawn) [Example 2-458]	< 100	< 1000	≥ 10000
CC1[C@H](c2ccccc2)[C@]1(NS(=O)(=O)N1CCN(c2ccc(Cl)c(F)c2)CC1)C(=O)O (stereo partly drawn) [Example 2-459]	< 100	< 1000	≥ 1000
CC1[C@H](c2ccccc2)[C@]1(NS(=O)(=O)N1CCN(c2ccc(Cl)cc2F)CC1)C(=O)O (stereo partly drawn) [Example 2-460]	< 100	< 1000	≥ 1000
CC1[C@H](c2ccccc2)[C@]1(NS(=O)(=O)N1CCCN(c2ccc(Cl)cn2)CC1)C(=O)O (stereo partly drawn) [Example 2-461]	≥ 1000	< 1000	≥ 10000
